Assay [1] can be described thus: Inhibition of c-Met in human DU145 cells assessed as cell scattering.
A short description of assay [2]: Inhibition of c-Met in human A549 cells by wound healing assay.

Consider `COc1cc2nccc(Oc3ccc(NC(=O)N4CCN(c5ccccc5)C4=O)cc3F)c2cc1OC`, for which the IC50 in assay [1] and in assay [2] was 80 nM each time.

For the origin of these results see BindingDB's records for doi:10.1016/j.bmcl.2009.10.040 (Methylgene, 2009).
